Source: patent publication US12178825B2, “Method and compositions for forming a copper-containing complex and uses thereof” (COLD SPRING HARBOR LABORATORY, priority 2017, dated 2024)
“Also recorded” adds a separate entry of the source.

Tests used:
MDA-MB-231 cells = assay: Cell survival; format: cell-based
Procedure: (§1) The MTT assay was used to evaluate cell survival in the absence and presence of different compounds. The thiazolyl blue tetrazolium bromide (MTT) was dissolved in phosphate buffered saline (PBS) at a concentration of 5 mg/ml, filtered, and stored at 4° C. About 10,000 cells were seeded into a 96-well plate and cultured in growth medium containing serum. After 24 hours, cells were treated with the indicated concentrations of DPM-1001 or DPM-1003 (0-100 uM) for 2 hrs. Following which 20 μl MTT was added into each well. An ELISA plate reader (Biotek, Winooski, Vermont, USA) was used to measure the optical density at 490 nm.
MDA-MB-231 cells (1×10^5) were seeded in 6 cm plates in growth medium. The cells were untreated or treated with DPM-1001 (0.5, 1, 2 and 5 μM), DPM-1003 (0.5, 1, 2 and 5 μM) or TTM (25, 50, 100 μM) for 1 h. Following which, media was gently aspirated and cells were washed with PBS. To each plate 0.5 ml of crystal violet (0.5%) was added and incubated in dark for 10 minutes at room temperature. The staining solution was removed and plates were washed with PBS (three times). The cells stained with the dye were imaged.

HCC70 cells = assay: Cell survival; format: cell-based
Procedure: as §1

MCF-7 = assay: Cell survival; format: cell-based
Procedure: as §1

MDA-MB-468 cells = assay: Cell survival; format: cell-based
Procedure: as §1

SUM149 cells = assay: Cell survival; format: cell-based
Procedure: as §1

SUM159 = assay: Cell survival; format: cell-based
Procedure: as §1

[1] = test system: AZD6244-insensitive cells; assay: Immunoblot of phospho-MEK and phospho-Erk; format: cell-based; conditions: AZD6244-insensitive (resistant) cells
Excerpt: (§2) Equal quantities of lysates were isolated from indicated cell lines and then resolved by SDS-PAGE and immunoblotted with one of the following primary antibodies: mouse anti-MEK1/2, rabbit anti-p-PAK1, rabbit anti-PAK1, rabbit anti-ERK1/2, rabbit anti-phospho(Ser 217/221)-MEK1/2, rabbit anti-phospho(Thr 202/Tyr 204)-ERK1/2, rabbit anti-phospho (Ser 338)-c-RAF, rabbit anti-RAF, rabbit anti-phospho (Ser 112)-BAD and rabbit anti-BAD (Cell Signaling Technology), mouse anti-β-actin (Sigma), followed by detection with one of the following horseradish peroxidase-conjugated secondary antibodies: goat anti-rabbit IgG, goat anti-mouse IgG (Invitrogen), mouse anti-rabbit light-chain-specific IgG (Jackson ImmunoResearch Laboratories) using enhanced chemiluminescence (ECL; GE Healthcare) or SuperSignal West Femto Chemiluminescent substrate (Pierce) detection reagents.

AZD6244-sensitive cells = assay: Immunoblot of phospho-MEK and phospho-Erk; format: cell-based; conditions: 1-2 μM AZD6244
Excerpt: as §2

[2] = ESI-MS analysis of complex formation with copper salts; format: binding; conditions: for Percentage (binding percentage): DPM-1013:Cu = 1:8
Procedure: Eight equivalents of M(NO3)2·xH2O or MSO4·xH2O (M=Cu, Zn) were reacted with 1 eq. of DPM-1001 (1 mM in H2O). The reaction solutions were stirred at RT, 40° C. and 80° C. for 2 h. Mass spectra were recorded on a Bruker Esquire 6000 HCT quadrupole ion trap instrument (Bruker Daltonik GmbH, Leipzig, Germany), equipped with an electrospray ionization (ESI) source. Generation of the molecular formula of the DPM-1001/Cu(II) species and the comparison between the theoretical (simulated) and the measured isotopic patterns was performed using the DataAnalysis 4.0 software (Bruker).
(§3) Eight equivalents of M(NO3)2·xH2O or MSO4·xH2O were reacted with 1 eq. of DPM-1001, DPM-1003 or analog 2 (1 mM in H2O). The reaction solutions were stirred at RT, 40° C. and 80° C. for 2 h. Each sample was diluted 5-fold in 50% methanol, 0.1% formic acid and loaded into a 500 μL syringe. A Thermo Vantage triple quadrupole mass spectrometer (Thermo Scientific), equipped with an HESI spray source was coupled to an Accela HPLC system (Thermo Scientific). Mobile phase A consisted of 0.1% formic acid and mobile phase B consisted of 0.1% formic acid in methanol. Isocratic flow was set to 50% B at 200 μL/min. 200 μl samples were injected into the LC flow line via syringe pump at 10 μL/min and electrosprayed into the Vantage triple quadrupole mass spectrometer. A spray voltage of 4.3 kV was used along with a capillary temperature of 350° C. Each full MS scan was 0.5 s and data were collected with a scan range of 200 m/z to 900 m/z over 1 min.
Binding of compounds of Formula I other than DPM-1001 was also confirmed. In an ESI-MS test, compound DPM-1013 as hydrochloride salt was dissolved in distilled water at a concentration of 2 mM freshly before testing. It was then mixed with an equal volume copper sulfate (16 mM) or copper chloride solution (16 mM) for 2 h, rendering a concentration of DPM-1013 at 1 mM and the copper salt 8 mM. The mixture was then further diluted 100-fold before injection into an ESI-MS, making a final concentration of DPM-1013 of 10 μM and Cu 80 μM in the test.
Binding percentage=peak intensity of all DPM-1013-Cu complex/(peak intensity of all DPM-1013-Cu complex+peak intensity of free DPM-1013).

[3] = ESI-MS analysis of complex formation with a series of other metal ions; format: binding; conditions: panel of metals
Procedure: as §3

PTP1B1-405 = target: T1, PTP1B1-405 (Homo sapiens, UniProt P18031); assay: PTP1B phosphatase activity assay, DiFMUP substrate, long form; format: biochemical
T1 construct: PTP1B1-405 (the long form of PTP1B which contains the extended C-terminal segment); made in house; host or cells: Escherichia coli BL21 (DE3)-RIL
T1 sequence (P18031 1-405): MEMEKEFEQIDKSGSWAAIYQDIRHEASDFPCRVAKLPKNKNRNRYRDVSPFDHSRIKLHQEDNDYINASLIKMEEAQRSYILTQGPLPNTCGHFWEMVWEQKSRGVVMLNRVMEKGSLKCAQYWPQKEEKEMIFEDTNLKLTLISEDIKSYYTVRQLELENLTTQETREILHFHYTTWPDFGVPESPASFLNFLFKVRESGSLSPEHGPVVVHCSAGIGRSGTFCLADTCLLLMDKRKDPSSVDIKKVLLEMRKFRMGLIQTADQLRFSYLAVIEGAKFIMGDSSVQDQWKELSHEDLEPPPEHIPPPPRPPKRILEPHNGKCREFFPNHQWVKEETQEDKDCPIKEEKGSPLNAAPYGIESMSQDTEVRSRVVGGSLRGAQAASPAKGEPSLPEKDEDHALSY
Procedure: (§4) All common reagents were obtained from Thermo Fisher Scientific (Waltham, MA) or Sigma-Aldrich (St. Louis, MO). Difluoro-4-methylumbelliferyl phosphate (DiFMUP) was obtained from Invitrogen (cat #D22065). Solid black 384-well plates (cat #3573) for phosphatase assays were from Corning Incorporated (Corning, NY).
(§5) Wild-type PTP1B containing a His-tag was expressed in Escherichia coli BL21 (DE3)-RIL using LB. Cells were resuspended in lysis buffer (50 mM Hepes pH 7.2, 150 mM NaCl, 10 mM imidazole, 2 mM TCEP) with cOmplete EDTA-free Protease Inhibitor Cocktail (Roche), and then lysed using a sonicator at 4° C. Lysates were clarified by centrifugation. Initial protein purification was by gravity flow, nickel column chromatography. Protein was used immediately or stored at −80° C. in 50 mM HEPES pH 7.4, 100 mM NaCl, 2 mM dithiothreitol and 25% glycerol.

PTP1B1-321 = target: T2, PTP1B1-321 (Homo sapiens, UniProt P18031); assay: PTP1B phosphatase activity assay, short form; format: biochemical; conditions: enzyme-inhibitor complex diluted, activity recovery monitored
T2 construct: C-terminally truncated PTP1B (1-321); made in house; host or cells: Escherichia coli BL21 (DE3)-RIL
T2 sequence (P18031 1-321): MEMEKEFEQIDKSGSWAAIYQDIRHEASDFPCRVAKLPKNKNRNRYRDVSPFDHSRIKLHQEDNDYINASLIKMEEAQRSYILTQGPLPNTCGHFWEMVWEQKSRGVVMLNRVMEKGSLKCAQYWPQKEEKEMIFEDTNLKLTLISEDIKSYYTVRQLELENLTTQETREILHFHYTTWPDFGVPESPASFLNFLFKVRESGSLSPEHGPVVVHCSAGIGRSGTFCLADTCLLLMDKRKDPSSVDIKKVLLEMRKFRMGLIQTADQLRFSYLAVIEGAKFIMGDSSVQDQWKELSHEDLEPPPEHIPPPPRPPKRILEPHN
Procedure: as §4, §5

PTP1B-L192A/S372P = PTP1B-L192A/S372P (Homo sapiens, UniProt P18031, L192A/S372P); assay: Phosphatase assay with MSI-1436-resistant mutant; format: biochemical
Excerpt: as §4

TX mice = assay: Tissue and fecal copper levels (ICP-MS, rhodanine staining); format: in vivo, mouse
Procedure: C3He-Atp7b^tx-j were obtained from the Jackson laboratory. All animal experiments were performed according to protocols approved by the Institutional Animal Use and Care Committee of Cold Spring Harbor laboratory. Mice were injected intraperitoneally (i.p.) with vehicle, or administered DPM-1001 intraperitoneally or orally at 5 mg/kg once every third day, for over a year. At the end of the study animals were euthanized and tissue samples were removed for biochemical studies.
Tissue samples from wild-type or TX mice treated with saline, DPM-1001 or tetrathiomolybdate was washed three times with PBS containing 1 mM EDTA (to remove nonspecifically bound copper). Then, 215 μl of concentrated nitric acid (BDH Aristar Ultra) was added to each sample and incubated overnight. Samples were boiled at 95° C. for 1 h. and approximately 150 μl of each sample was further diluted in 2 ml 2% nitric acid (made freshly from concentrated nitric acid and Milli-Q water) Samples were analyzed on a Thermo Fisher iCAP Qc ICP mass spectrometer in kinetic energy discrimination (KED) mode against a calibration curve of known copper and phosphorus concentrations, with Ga (20 μg/l, Inorganic Ventures) as an internal standard, Each experiment was carried out twice and each condition was repeated in at least triplicate.
Liver tissues from wild-type and TX mice from untreated and DPM-1001-treated mice were sectioned and stained with H&E or rhodanine. Whole-slide, digitized images of H&E-stained tissue were captured using the Aperio ScanScope XT automated scanning system (Vista, CA). Image J software was used to quantitate rhodanine staining.

Chain of PTP1B-L192A/S372P (P18031 whole entry L192A/S372P): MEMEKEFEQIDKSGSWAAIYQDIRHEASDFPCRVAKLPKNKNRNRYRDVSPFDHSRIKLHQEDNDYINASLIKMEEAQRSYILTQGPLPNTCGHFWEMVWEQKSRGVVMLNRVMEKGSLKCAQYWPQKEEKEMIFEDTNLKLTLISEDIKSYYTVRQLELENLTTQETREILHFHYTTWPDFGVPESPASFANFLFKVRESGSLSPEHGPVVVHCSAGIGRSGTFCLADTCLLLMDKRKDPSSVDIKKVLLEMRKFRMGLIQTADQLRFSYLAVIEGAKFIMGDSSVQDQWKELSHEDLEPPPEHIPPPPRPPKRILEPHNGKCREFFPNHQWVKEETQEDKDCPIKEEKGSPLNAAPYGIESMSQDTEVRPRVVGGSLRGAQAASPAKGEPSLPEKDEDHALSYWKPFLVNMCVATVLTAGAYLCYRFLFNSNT

Which “survival of MDA-MB-231 cells” value (MDA-MB-231 cells) does the source give for `Cn1cnc2c(F)c(Nc3ccc(Br)cc3Cl)c(C(=O)NOCCO)cc21` [AZD6244, 6-(4-bromo-2-chloroanilino)-7-fluoro-N-(2-hydroxyethoxy)-3-methylbenzimidazole-5-carboxamide] here?
The value was “inhibited cell survival”.

What about the “survival of HCC70 cells” value (HCC70 cells) of the same compound?
The value was “without effect on survival”.

And the “survival of MCF-7 cells” value (MCF-7)?
Its value is “inhibited cell survival”.

What about the “survival of MDA-MB-468 cells” value (MDA-MB-468 cells) of the same compound?
Its value is “without effect on survival”.

And the “survival of SUM149 cells” value (SUM149 cells)?
Its value is “without effect on survival”.

And the “survival of SUM159 cells” value (SUM159)?
Its value is “inhibited cell survival”.

And the “phospho-MEK and phospho-Erk” value [1]?
Its value is “without effect”.

And the “phospho-MEK and phospho-Erk” value (AZD6244-sensitive cells)?
The value was “reduced phospho-MEK and phospho-Erk”.

Which results are given for `c1ccc(CNCCCCNCc2ccccn2)nc1` [Analog 2, N^1,N^4-bis(pyridin-2-ylmethyl)butane-1,4-diamine]?
complex formation with copper [2]: Cu(II)-bound form; complex formation with other metals [3]: bound to all the metals tested

Which “complex formation with copper” value [2] does the source give for `COC(=O)CC[C@@H](C)[C@H]1CC[C@H]2[C@@H]3[C@H](O)C[C@@H]4C[C@@H](NCCCCNCc5ccccn5)CC[C@]4(C)[C@H]3CC[C@]12C` [DPM-1013] here?
The value was “formed complexes with free Cu, CuSO4; also recorded: formed complexes with free Cu, CuCl2”.

And the “Percentage (binding percentage)” value ([2]; CuCl2)?
Its value is 74.29%.

What about the “Percentage (binding percentage)” value ([2]; CuSO4) of the same compound?
Its value is 82.23%.

For `CC(C)[C@@H](CC[C@@H](C)[C@H]1CC[C@H]2[C@@H]3[C@H](O)C[C@H]4C[C@@H](NCCCNCCCCNCCCN)CC[C@]4(C)[C@H]3CC[C@]12C)OS(=O)(=O)O` [MSI-1436, 3-N-1(spermine)-7,24-dihydroxy-5-cholestane 24-sulfate, reference compound], which “reversibility of inhibition of PTP1B1-405” value (PTP1B1-405; enzyme-inhibitor complex diluted, activity recovery monitored) is on record?
Its value is “reversible inhibitor”.

And the “time until PTP1B activity recovers” value (PTP1B1-405; sample diluted 100-fold)?
Its value is ≤ 60 min.

What about the “reversibility of inhibition of PTP1B1-321” value (PTP1B1-321) of the same compound?
The value was “reversible inhibitor”.

What about the “sensitivity of PTP1B-L192A/S372P to inhibitor” value (PTP1B-L192A/S372P) of the same compound?
The value was “insensitive”.

And the “complex formation with copper” value [2]?
Its value is “does not form a complex with copper”.

For `[SH-].[SH-].[S]=[Mo]=[S]` [tetrathiomolybdate, reference compound], which “copper levels in feces” value (TX mice; TX mice) is on record?
Its value is “only a small increase”.

What about the “copper levels in liver and brain” value (TX mice; TX mice, ICP-MS) of the same compound?
The value was “prevented accumulation of copper in liver and brain”.

What about the “copper levels in kidney” value (TX mice; wild-type and TX mice, ICP-MS) of the same compound?
The value was “caused accumulation of copper in the kidney; also recorded: dramatically elevated copper levels in the kidney”.
